Results as given in a melting point compilation (Tetko et al.; mined from patent text by program, amines drawn as free bases though some values may be those of a salt).

Row | SMILES | melting point
1 | CCOC(=O)c1ncn2c1CN=C(c1cccs1)c1cc(C#C[Si](C)(C)C)ccc1-2 | 124 to 127 °C
2 | COc1ccc(Br)c(C=O)c1OC(C)=O | 119 to 120 °C
3 | CCOC(=O)c1cn(NC)c2cc3c(cc2c1=O)OCO3 | 211 to 218 °C
4 | COc1cc2c(cc1OC)N(C)C(=O)CN=C2c1cccc(C=O)c1 | 175 to 178 °C
5 | COC(=O)C(CC(N)C(=O)O)CC(N)N1C=CC=CC1 (stereo not given) | 240 to 242 °C
6 | Cc1c(C)c2c(c(C)c1N)CC(C)(CSc1ccncc1)O2 (stereo not given) | 96 to 97 °C
7 | COc1cc(OC)nc(NC#N)n1 | 202 °C
8 | CC(=O)SCCS(C)(=O)=O | 57 to 59 °C
9 | O=C(O)c1cc(Br)c(Cl)cc1O | 208 to 213 °C
10 | Cc1oc2cc(C3CCNC(=O)C3)ccc2c1C (stereo not given) | 195 to 197 °C
11 | O=C1N(CC2CCCO2)c2cc3c(cc2C12COc1cc4c(cc12)CCO4)OCCO3 (stereo not given) | 220 to 225 °C
12 | O=C(Nc1cccc2c1C(=O)c1c-2n[nH]c1[C@H]1CC[C@H](C(=O)N2CCNCC2)CC1)NN1CCOCC1 | 247 to 248 °C
13 | CC(=O)Oc1cc([N+](=O)[O-])ccc1CBr | 76.5 to 78 °C
14 | CCCCCCN(CCCCCC)C(Nc1ccc(OC)cc1OC)=C1C(=O)COC1=O | 96 to 98 °C
15 | CCOC(=O)c1cnc(Nc2cccc(OC)c2)[nH]c1=O | 233 to 234 °C
16 | COCc1ncc(C(=O)O)s1 | 131 °C
17 | CC(C)CNC(=O)[C@H](C)C[C@H](O)[C@H](CC1CCCCC1)NC(=O)[C@H](Cc1cscn1)NC(=O)[C@@H](CC(=O)N(C)Cc1ccccc1)Cc1ccccc1 | 118 to 120 °C
18 | COC(=O)NC1=NCC(c2ccc(OC(C)C)cc2)N1C (stereo not given) | 135 to 138 °C
19 | CCCCCCCCCCCCCCCCC#CCC(CO)CO | 55 °C
20 | COc1ccc(S)c(C(=O)O)c1 | 173 to 178 °C

Continued, values first:

Row | melting point | SMILES
21 | 196 to 197 °C | Cc1ccccc1-c1ccc(C(=O)N2Cc3ccc(C(=O)NCc4ccc(Cl)cc4)n3Cc3ccccc32)cc1C
22 | 112 °C | CCCCOc1ccc(S(=O)(=O)C2(C(=O)O)CCN(Cc3ccc(F)cc3)CC2)cc1
23 | 81.5 °C | Cc1cn(Cc2ccccc2)c(=O)n(CC2(CO)CC2)c1=O
24 | 127 °C | COC(=O)c1ccc(Cc2cc3cc(C(F)(F)F)ccc3[nH]2)cc1
25 | 160 to 162 °C | COC(=O)c1sc(C(C)(C)C)cc1NC(=O)Nc1ccc(F)cc1
26 | 186 to 187 °C | CC(=NOCCOc1ccc(CC2SC(=O)NC2=O)cc1)c1ccc(-c2ccccc2)nc1 (stereo not given)
27 | 179 to 181 °C | Cn1nc(-c2cc(C(=O)O)c(Cl)cc2F)c(Cl)c1C(F)(F)F
28 | 197 to 199 °C | O=C1CCC2(CCC(=O)c3ccccc32)C(=O)N1 (stereo not given)
29 | 202 to 204 °C | CCOc1cc2c(c3c1OC(C)(C)C3)C(c1cccc(N3C(=O)CNC3=O)c1)=NC(C)(C)C2
30 | 150 to 152 °C | COc1ccc(CCNC(=O)CC=CCC(=O)NCCc2ccccc2)cc1OC
31 | 131 to 133 °C | CCOCc1cc2cccc(OC)c2oc1=O
32 | 211 to 213 °C | O=C(NC(=O)c1c(Cl)cccc1Cl)Nc1ccc(OC(F)(F)C(Cl)Cl)cc1
33 | 115 to 118 °C | Cc1c(-c2cccc(O)c2)n(Cc2ccc(OCCN3CCCCC3)cc2)c2ccc(O)cc12
34 | 156 °C | Oc1ccccc1C=NC1=NN(c2cccc(C(F)(F)F)c2)CC1
35 | 170 to 171 °C | CCOc1ccc(-c2nc(-c3cccc(N4CCCC4C(=O)O)n3)cs2)cc1OCC (stereo not given)
36 | 100 to 102 °C | COc1ccc(C2=NN(c3ccc(-c4nnn(Cc5ccccc5)n4)cc3)C(=O)[C@H]3CC=CC[C@@H]23)cc1OC (relative stereo)
37 | 80 to 81.5 °C | CCc1ccccc1C(Cc1ccccc1NC(=O)C(C)(C)C)NC (stereo not given)
38 | 75 °C | N#Cc1ccc(C=O)c(-c2ccccc2)c1
39 | > 300 °C | O=C(c1ccccc1)c1ccc2nc3[nH]c(=O)[nH]c3cc2c1
40 | 124 to 126 °C | O=[N+]([O-])c1ccc(-c2cccs2)cc1
